Laboratory results from paper PMC7278359, “Small molecule AX-024 reduces T cell proliferation independently of CD3ϵ/Nck1 interaction, which is governed by a domain swap in the Nck1-SH3.1 domain” (The Journal of Biological Chemistry, 2020).

Legend:
Nck1-SH3.1 [1] = molecular target: T1, Nck1-SH3.1 (Homo sapiens, UniProt P16333); assay: SPR binding to immobilized Nck1-SH3.1; conditions: SPR, peptide up to 200 μM, Nck1-SH3.1 1260 RU, single titration, qualitative
T1 construct: His10-Avi-TEV-Nck1-SH3.1 (residues 1–61, MM 11,847 Da) was biotinylated and immobilized via streptavidin; made in house; host or cells: Escherichia coli BL21 (DE3)
Experimental: SPR experiments were conducted on a T200 Biacore instrument (GE Healthcare, Uppsala, Sweden) at 20 °C in 10 mM HEPES/NaOH, pH 7.8, 150 mM NaCl, 1 mM TCEP. […] Streptavidin is immobilized on the CAP sensor by way of double-strand DNA formation. A ssDNA is covalently coupled to the sensor surface, and a complementary DNA strand, covalently linked to streptavidin, is hybridized. To regenerate the surface, the DNA duplex is dissociated by washing with high-ionic strength solution. […] The reference channel for binding studies contained the same streptavidin-coated surface blocked with biotin.
Five replicates were performed for each CD3ϵ concentration (Table S1), whereas for the qualitative assessment of the APVA variant, only a single titration was performed.
SPR equilibrium signals were corrected for the signal in the reference channel and buffer contributions. The resulting SPR amplitudes were plotted as a function of peptide concentration, and a simple binding equation describing a Langmuir adsorption isotherm was fit to the data (GraphPad Prism) to extract the equilibrium dissociation constant Kd. (Eq. 1) RU=RUmax·[peptide]/[peptide]+Kd

CD4 T cell proliferation = CD4 T cell proliferation by CFSE dilution, anti-CD3 stimulation; type: cell-based, human; conditions: concentrations up to 1 μM; anti-CD3, CFSE dilution, day 4, 0.3% DMSO/0.3% PBS control
Experimental: (§1) Figure 2. […] CD4 T cell proliferation was assessed upon stimulation with anti-CD3ϵ by CFSE dilution as a measure for cellular proliferation, analyzed on day 4. For rapamycin and AX-024–treated cells, the dashed line indicates control proliferation at a DMSO concentration of 0.2%. For CD3ϵ-derived peptides 11Rwt, 11R085, and 11Rscr, the dashed line indicates control proliferation at 0.3% DMSO, 0.3% PBS. 11Rwt has sequence R11-G3-[…], 11R085 R11-G3-Q(dK)[…], and 11Rscr R11-G3-[…](dK)PQP. A polyarginine tag is used to enable cell penetration of the peptides ([10]). The gray boxes indicate concentrations of compound leading to decreased cell viability. These values should be disregarded. Binding of peptides 11Rwt and 11R085, but not 11Rscr, to Nck-SH3.1 was confirmed by NMR spectroscopy (Fig. S1). Asterisks, p < 0.05 as determined by a repeated-measure one-way analysis of variance with Holm–Sidak's multiple-comparison test to DMSO/PBS. Dotted lines, mean DMSO/PBS values. Error bars, S.D.
(§2) Fresh human peripheral blood mononuclear cells (PBMCs) from healthy donors (n = 4) were prepared from buffy coats. CD3^+ T cells were isolated by immunomagnetic separation (negative selection, StemCell, lot 18A87710), carboxyfluorescein succinimidyl ester (CFSE)-labeled, resuspended in StemCell Immunocult^TM-XF T cell expansion medium, and treated with compounds or vehicle for 2 h at room temperature. The isolated CD3^+ T cells were stained for CD3, CD4, and CD8, and their purity was assessed by flow cytometry. Cells were then cultured in a 96-well flat-bottomed plate (10^5 cells/well), precoated for 1 h at 37 °C with 0.2 μg·ml^−1 plate-bound anti-CD3 (clone OKT3, BioLegend). […] Cells were cultured in the presence of AX-024, rapamycin, peptide 11Rwt, peptide 11R85, peptide 11Rscr (derived from Ref. [11]; see below for sequences), or vehicle for 4 days. At the end of culture, cells were stained for viability, and CFSE dilution was assessed by flow cytometry (with gating on CD4 versus CD8).

CD4 T cell = assay: Cytotoxicity / viability of CD4 T cells in proliferation assay; type: cell-based, human; conditions: 4 days, decreased cell viability (gray boxes in Fig. 2)
Experimental: as §1, §2

CD8 T cell proliferation = CD8 T cell proliferation by CFSE dilution; type: cell-based, human; conditions: concentrations low enough to avoid cytotoxic effects; data not shown
Experimental: as §2

Nck1-SH3.1 [2] = molecular target: T1, Nck1-SH3.1; assay: NMR binding of poly-Arg CD3ϵ-derived peptides to Nck1-SH3.1; conditions: Fig. S1
Experimental: NMR spectra were recorded on a Bruker 600-MHz Avance NEO spectrometer equipped with a cryogenic QCI probe head at 27 °C in 25 mM […], 150 mM NaCl. The Topspin 4.0 software (Bruker, Fällanden) was used for spectrometer operation and data processing. For ^1H ligand-observed measurements, a relaxation filtered pulse sequence utilizing a spinlock of 50 ms was applied. 1D spectra were acquired with 128 scans, a sweep width of 26 ppm, and an acquisition time of 2 s. 2D ^1H-^15N HSQC spectra with natural ^15N isotope abundance were recorded over 72 h with a spectral width of 16 ppm and 35 ppm in the proton and nitrogen dimensions, respectively, with 256 increments (complex) and 1000 scans per increment. A relaxation delay of 1 s was used between scans. For the DOSY measurements (reviewed in Ref. [51]), the Bruker pulse sequence ledbpgp2s with a diffusion delay of 50 ms and a gradient length of 600 μs was used. The gradient strength was varied from 5 to 95% to record 16 increments of 512 scans with a sweep width of 18 ppm and a relaxation delay of 1 s.
Samples for ligand-observed measurements were prepared in 25 mM sodium phosphate buffer, pH 6.5, 150 mM NaCl. One sample contained 50 μM AX-024, and the other contained 50 μM CD3ϵ peptide.

Substance | fold weaker binding of APVA mutant than WT CD3ϵ peptide (Nck1-SH3.1 [1]) | inhibition of CD4 T cell proliferation by peptides (CD4 T cell proliferation) | concentration at which peptides were cytotoxic (CD4 T cell) | effect on CD8 T cell proliferation (CD8 T cell proliferation) | binding to Nck1-SH3.1 by NMR (Nck1-SH3.1 [2])
RGQNKERPAPVANPDY-NH2 [APVA variant of CD3ϵ peptide] | ~10 -fold | – | – | – | –
R11-G3-PKVRECPDYK(dK)PQP [11Rscr, scrambled peptide with the same composition as 11R085 but lacking the canonical PRS] | – | none of the peptides inhibited CD4 T cell proliferation | exceeding 6 μM | did not affect CD8 T cell proliferation | does not
R11-G3-RGYNKERPPPVPNPDY [11Rwt, R11-G3-tagged cell-penetrating CD3ϵ-derived peptide] | – | none of the peptides inhibited CD4 T cell proliferation | exceeding 6 μM | did not affect CD8 T cell proliferation | bind to Nck1-SH3.1
R11-G3-Q(dK)KECPPPVPKRDY [11R085, R11-G3-tagged cell-penetrating CD3ϵ-derived peptide] | – | none of the peptides inhibited CD4 T cell proliferation | exceeding 6 μM | did not affect CD8 T cell proliferation | bind to Nck1-SH3.1
